Experimental data published in patent US8927724B2, “Isoxazole beta-lactamase inhibitors” (priority 2012, dated 2015).
Counter-ions that a name gives are not always drawn.

Experiments:
KPC-2 β-lactamase = KPC-2 β-lactamase (Klebsiella pneumoniae, UniProt Q9F663); experiment: Inhibition kinetics of KPC-2 with nitrocefin as reporter substrate; type: biochemical, K. pneumoniae; details: KPC-2, 100 μM nitrocefin, 1×PBS pH 7.4, 25° C.
Description: Inhibition or inactivation of KPC-2 by test inhibitors was assessed using 100 μM nitrocefin (NCF) as a reporter substrate. Assays were performed in 1×PBS pH 7.4, 0.1 mg/ml BSA, in 96-well half area plates, 50 μl reaction volume. NCF was dissolved in DMSO and diluted in assay buffer. Test inhibitors were dissolved in water or DMSO and serially diluted in the assay with final concentrations between […] The enzyme activity in the presence of varying concentrations of test inhibitor was determined by monitoring the hydrolysis of NCF spectrophotometrically at 486 nm, for 5 minutes, 25° C., using a SpectraMax Plus384 microplate reader with SoftMax Pro software (Molecular Devices). Data analysis was performed using GraphPad Prism (GraphPad Software, Inc.).
Progress curves were fit to a first-order rate decay equation (Eq. 1) to determine kobserved (kobs).
kobs vs. inhibitor concentration [I] curves were then fit to Eq.2 to determine the inhibitor dissociation constant (K) and the first order rate constant of enzyme inactivation at infinite inhibitor concentration (kinact). […] Yt=V0*(1−e^(−kobs^*t))/kobs Eq. 1 Where Y is the absorbance at time t, Vo is the uninhibited enzyme velocity, kobs is the observed rate constant of the enzyme inactivation. kobs=kinact*[I]/([I]+K(1+S/Km)) Eq. 2 Where S is the NCF concentration, Km is the KPC-2 Km for NCF

[1] = system: bacterial strains that express KPC β-lactamases; experiment: Synergy MIC / standard BLI potentiation MIC assay, strains expressing KPC β-lactamases; type: cell-based; details: at least one KPC strain and/or better spectrum; in the presence of a β-lactam
Description: (§1) The experimental protocol was performed according to Clinical and Laboratory Standards Institute (CLSI) guidelines with modifications as described below (CLSI guidelines can be derived from the CLSI document M07-A9 published in January 2012: “Methods for Dilution Antimicrobial Susceptibility Tests for Bacteria That Grow Aerobically; Approved Standard-Ninth Edition”).
(§2) To prepare for MIC testing, frozen glycerol stocks of clinical isolates (Klebsiella pneumoniae, Eschericia coli, Enterobacter spp, Citrobacter spp, or Pseudomonas aeruginosa) were used to streak for isolated colonies on rich, non-selective, tryptic soy agar containing 5% sheep's blood (TSAB). Frozen glycerol stocks of laboratory engineered, isogenic E. coli strains, which contain cloned β-lactamase expressing plasmids were used to streak for isolated colonies on rich, selective LB agar supplemented with 25 μg/mL tetracycline to maintain the plasmid. All strains were incubated at 37° C. for 18-24 hrs.
(§3) On the day of testing, primary cultures were started by scraping off 5-10 colonies from the TSAB plates containing clinical strains or the tetracycline supplemented LB plates containing engineered strains. The clinical strain material was suspended in ˜5 mL of cation adjusted Mueller Hinton Broth (CAMHB) in 14 mL culture tubes. The engineered strain material was suspended in CAMHB (supplemented with 25 μg/mL tetracycline) in 14 mL culture tubes. All strains were incubated at 37° C. with aeration (200 rpm) for ˜2 hrs until the optical density at 600 nm (OD600) was >0.1.
(§4) The two compound components of the assay were each diluted in CAMHB and added to the 96-well broth microdilution assay plates. 50 μL of the β-lactam was added to each well of the assay plate in 2-fold dilutions with final concentrations ranging from 128 to 0.13 μg/mL. 25 μL of the BLI compound was added to all wells in the broth microdilution plates at a final concentration of 4 μg/mL. Inoculum cultures were prepared by standardizing the primary cultures to OD600=0.1 and then adding 20 μL of the adjusted primary culture per 1 mL CAMHB for clinical strains or CAMHB (supplemented with tetracycline at 100 μg/mL) for engineered strains, so that the final inoculum density was ˜10^5 colony forming units per milliliter. Diluted inoculum cultures were used to inoculate 25 μl, per well in 96-well broth microdilution assay plates. The final volume of each well was 100 μL and contained a β-lactam at different concentrations, a BLI compound at 4 μg/mL concentration, the bacterial culture at an OD600 of approximately 0.001 and when necessary tetracycline at 25 μg/mL.
(§5) Plates were incubated for 18-20 hours at 37° C. with aeration (200 rpm). Following incubation, growth was confirmed visually placing plates over a viewing apparatus (stand with a mirror underneath) and then OD600 was measured using a SpectraMax 340PC384 plate reader (Molecular Devices, Sunnyvale, Calif.). Growth was defined as turbidity that could be detected with the naked eye or achieving minimum OD600 of 0.1. MIC values were defined as the lowest concentration producing no visible turbidity.
The synergy MIC (sMIC) assay determines the concentration of the BLI required to potentiate the activity of a fixed concentration of a β-lactam antibiotic against β-lactamase producing bacterial strains. The experimental protocol was performed according to Clinical and Laboratory Standards Institute (CLSI) guidelines with modifications as described below (CLSI guidelines can be derived from the CLSI document M07-A9 published in January 2012: “Methods for Dilution Antimicrobial Susceptibility Tests for Bacteria That Grow Aerobically; Approved Standard-Ninth Edition”). […]

[2] = system: bacterial strains that express the class D cephalosporinase OXA-15; experiment: Synergy MIC / standard BLI potentiation MIC assay, strains expressing OXA-15; type: cell-based, E. coli; details: in the presence of a β-lactam; comparator Avibactam (CCC)
Description: as §1, §2, §3, §4, §5
The synergy MIC (sMIC) assay determines the concentration of the BLI required to potentiate the activity of a fixed concentration of a β-lactam antibiotic against β-lactamase producing bacterial strains. […]

Sequence of KPC-2 β-lactamase (Q9F663 25-293 limits assumed): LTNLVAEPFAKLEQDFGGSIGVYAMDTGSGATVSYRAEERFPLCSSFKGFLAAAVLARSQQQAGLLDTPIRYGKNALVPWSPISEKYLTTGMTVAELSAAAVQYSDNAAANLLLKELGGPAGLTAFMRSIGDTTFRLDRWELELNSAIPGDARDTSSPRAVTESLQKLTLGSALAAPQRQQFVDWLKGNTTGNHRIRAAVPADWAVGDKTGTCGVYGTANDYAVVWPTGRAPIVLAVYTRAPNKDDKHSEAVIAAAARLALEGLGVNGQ

SMILES: NCCc1cc([C@@H]2CC[C@@H]3CN2C(=O)N3OS(=O)(=O)O)no1 [Compound 602, (2S,5R)-2-(5-(2-aminoethyl)isoxazol-3-yl)-7-oxo-1,6-diazabicyclo[3.2.1]octan-6-yl hydrogen sulfate]
- inactivation efficiency (kinact/K) (KPC-2 β-lactamase): 1-99 mM^−s^−1
- activity and/or spectrum of activity against bacterial strains that express KPC β-lactamases, compared with Avibactam [1]: more active than Avibactam

SMILES: N=C(N)NCCc1cc([C@@H]2CC[C@@H]3CN2C(=O)N3OS(=O)(=O)O)no1 [Compound 604, (2S,5R)-2-(5-(2-guanidinoethyl)isoxazol-3-yl)-7-oxo-1,6-diazabicyclo[3.2.1]octan-6-yl hydrogen sulfate]
- activity against bacterial strains that express OXA-15, compared with Avibactam [2]: more active than Avibactam
- activity and/or spectrum of activity against bacterial strains that express KPC β-lactamases, compared with Avibactam [1]: more active than Avibactam

SMILES: CN(Cc1cc([C@@H]2CC[C@@H]3CN2C(=O)N3OS(=O)(=O)O)no1)C(=N)N [Compound 614, (2S,5R)-2-(5-((1-methylguanidino)methyl)isoxazol-3-yl)-7-oxo-1,6-diazabicyclo[3.2.1]octan-6-yl hydrogen sulfate]
- activity against bacterial strains that express OXA-15, compared with Avibactam [2]: more active than Avibactam
- activity and/or spectrum of activity against bacterial strains that express KPC β-lactamases, compared with Avibactam [1]: more active than Avibactam

SMILES: O=C1N2C[C@@H](CC[C@H]2c2cc(CC3CNC3)on2)N1OS(=O)(=O)O [Compound 618, (2S,5R)-2-(5-(azetidin-3-ylmethyl)isoxazol-3-yl)-7-oxo-1,6-diazabicyclo[3.2.1]octan-6-yl hydrogen sulfate]
- activity against bacterial strains that express OXA-15, compared with Avibactam [2]: more active than Avibactam
- activity and/or spectrum of activity against bacterial strains that express KPC β-lactamases, compared with Avibactam [1]: more active than Avibactam
